# System: UV erythema
# Experiment: UV Erythema test
# Assay type: in vivo, guinea pigs
# Conditions: topical solution, erythema estimated four hours after application
# Protocol: The test is carried out on female albino guinea pigs, approx. 150 g wt. The animals are shaved on both flanks using a Braun micro razor, without causing skin irritation. For each test substance five animals are subjected to a defined intensity of UV radiation for 10 seconds on each of four areas of skin (10 mm diameter). Immediately afterwards 50 microliters of a solution of the test substance in ethanol/propylene glycol/dimethylacetamide (19:19:2 v/v) is applied to two of the irradiated areas on each animal and 50 microliters of the solvent mixture to the other two as controls. Four hours after application, the degree of erythema is estimated visually.
structure (smiles),measurement,value
COc1ccc2c(c1)c(CC(=O)O)c(C)n2C(=O)c1ccc(Cl)cc1 [indomethacin],effective concentration in UV-erythema test,2.5%
